Like-named read-outs stand apart in the source and are kept apart here.
Assays:
NRAS Q61R = NRAS Q61R (Homo sapiens, UniProt P01111+P62937, Q61R); assay: Disruption of BRAF RBD interaction with Ras (FRET / MOA assay); format: biochemical
Procedure: (§1) Compound is present in plate wells as a 10-point 3-fold dilution series starting at a final concentration of 30 μM. […] Compounds that facilitate disruption of a Ras:RAF complex are identified as those eliciting a decrease in the TR-FRET ratio relative to DMSO control wells.
(§2) Note—The following protocol describes a procedure for monitoring disruption of K-Ras G12C (GMP-PNP) binding to BRAF^RBD by a compound of the invention. This protocol may also be executed substituting other Ras proteins or nucleotides.
(§3) The purpose of this biochemical assay was to measure the ability of test compounds to facilitate ternary complex formation between a nucleotide-loaded K-Ras isoform and Cyclophilin A; the resulting ternary complex disrupts binding to a BRAF^RBD construct, inhibiting K-Ras signaling through a RAF effector. Data is reported as IC50 values.
(§4) Compound was present in plate wells as a 10-point 3-fold dilution series starting at a final concentration of 30 μM. […] Compounds that facilitate disruption of a K-Ras:RAF complex were identified as those eliciting a decrease in the TR-FRET ratio relative to DMSO control wells.

NRAS Q61K = NRAS Q61K (Homo sapiens, UniProt P01111+P62937, Q61K); assay: as above; format: biochemical
Procedure: as §1, §2, §3, §4

NRAS WT = NRAS WT (Homo sapiens, UniProt P01111+P62937); assay: as above; format: biochemical
Procedure: as §1, §2, §3, §4

KRAS G12C = KRAS G12C (Homo sapiens, UniProt P01116+P62937, G12C); assay: Disruption of BRAF RBD interaction with K-Ras (FRET / MOA assay); format: biochemical
Procedure: as §1, §2, §3, §4

KRAS Q61H = KRAS Q61H (Homo sapiens, UniProt P01116+P62937, Q61H); assay: as above; format: biochemical
Procedure: as §1, §2, §3, §4

NCI-H358 (K-Ras G12C) = assay: CellTiter-Glo Cell Viability Assay; format: cell-based; conditions: Homo sapiens, NCI-H358, 120 h; H358, 5-day treatment
Procedure: Determination of Cell Viability in RAS Mutant Cancer Cell Lines
Protocol: CellTiter-Glo® Cell Viability Assay
Note—The following protocol describes a procedure for monitoring cell viability of K-Ras mutant cancer cell lines in response to a compound of the invention. Other RAS isoforms may be employed, though the number of cells to be seeded will vary based on cell line used.
Test compounds (132.5 nl) were directly dispensed into the assay plates containing cells. […] On day 5, assay plates and their contents were equilibrated to room temperature for approximately 30 minutes. […] Luminescence was measured using the PerkinElmer Enspire. Data were normalized by the following: (Sample signal/Avg. DMSO)*100. The data were fit using a four-parameter logistic fit.

[1] = read-out: NRAS Q61R FRET data IC50
[2] = read-out: NRAS Q61K FRET data IC50
[3] = read-out: KRAS G12C FRET data IC50
[4] = read-out: KRAS Q61H FRET data IC50

Sequence of NRAS Q61R (P01111 whole entry Q61R): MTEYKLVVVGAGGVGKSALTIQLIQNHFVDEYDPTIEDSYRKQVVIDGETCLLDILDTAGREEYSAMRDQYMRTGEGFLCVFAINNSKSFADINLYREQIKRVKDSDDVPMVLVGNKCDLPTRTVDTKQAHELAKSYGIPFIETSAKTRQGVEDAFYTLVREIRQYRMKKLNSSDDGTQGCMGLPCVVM
Sequence of NRAS Q61R (P62937 whole entry): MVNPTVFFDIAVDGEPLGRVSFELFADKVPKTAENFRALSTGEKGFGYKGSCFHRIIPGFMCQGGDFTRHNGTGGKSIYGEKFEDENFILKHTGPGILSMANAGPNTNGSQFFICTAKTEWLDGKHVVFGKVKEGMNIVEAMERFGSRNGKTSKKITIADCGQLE
Sequence of KRAS Q61H (P01116 1-188 isoform P01116-2 Q61H): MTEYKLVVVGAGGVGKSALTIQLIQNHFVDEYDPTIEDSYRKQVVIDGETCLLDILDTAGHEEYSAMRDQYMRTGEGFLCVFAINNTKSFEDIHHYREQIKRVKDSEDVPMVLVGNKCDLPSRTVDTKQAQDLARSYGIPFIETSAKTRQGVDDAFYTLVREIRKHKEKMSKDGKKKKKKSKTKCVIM
Sequence of KRAS Q61H (P62937 whole entry): as the sequence (P62937 whole entry) above
Sequence of NRAS Q61K (P01111 whole entry Q61K): as the sequence (P01111 whole entry Q61R) above, with R61K counted along it
Sequence of NRAS Q61K (P62937 whole entry): as the sequence (P62937 whole entry) above
Sequence of KRAS G12C (P01116 1-188 isoform P01116-2 G12C): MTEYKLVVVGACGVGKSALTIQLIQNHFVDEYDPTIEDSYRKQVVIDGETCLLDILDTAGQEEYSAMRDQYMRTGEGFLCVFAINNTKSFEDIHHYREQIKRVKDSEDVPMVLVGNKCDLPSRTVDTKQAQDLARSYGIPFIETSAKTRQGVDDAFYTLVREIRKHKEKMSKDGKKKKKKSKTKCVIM
Sequence of KRAS G12C (P62937 whole entry): as the sequence (P62937 whole entry) above
Sequence of NRAS WT (P01111 whole entry): as the sequence (P01111 whole entry Q61R) above, with R61Q counted along it
Sequence of NRAS WT (P62937 whole entry): as the sequence (P62937 whole entry) above

IC50 (NRAS Q61R; [1]) [nM]	IC50 (NRAS Q61K; [2]) [nM]	IC50 (NCI-H358 (K-Ras G12C)) [nM]	SMILES	IC50 (KRAS Q61H; [4]) [nM]	also measured
10 to 100	10 to 100	< 10	CCn1c(-c2cccnc2[C@H](C)OC)c2c3cc(ccc31)-c1csc(n1)C[C@H](NC(=O)[C@H](C(C)C)N(C)C(=O)N1CCC1)C(=O)N1CCC[C@H](N1)C(=O)OCC(C)(C)C2 (atropisomer, axis not shown) [Compound A399]	–	–
10 to 100	10 to 100	< 10	CCn1c(-c2cccnc2[C@H](C)OC)c2c3cc(ccc31)-c1csc(n1)C[C@H](NC(=O)[C@H](C(C)C)N(C)C(=O)N1CCC3(COC3)C1)C(=O)N1CCC[C@H](N1)C(=O)OCC(C)(C)C2 (atropisomer, axis not shown) [Compound A561]	–	–
10 to 100	10 to 100	< 10	CCn1c(-c2cccnc2[C@H](C)OC)c2c3cc(ccc31)-c1csc(n1)C[C@H](NC(=O)[C@H](C(C)C)N(C)C(=O)N1CCN(C(C)=O)CC1)C(=O)N1CCC[C@H](N1)C(=O)OCC(C)(C)C2 (atropisomer, axis not shown) [Compound A291]	–	–
10 to 100	10 to 100	< 10	CCn1c(-c2cccnc2[C@H](C)OC)c2c3cc(ccc31)-c1csc(n1)C[C@H](NC(=O)[C@H](C(C)C)N(C)C(=O)N1CC[C@@H]1C)C(=O)N1CCC[C@H](N1)C(=O)OCC(C)(C)C2 (atropisomer, axis not shown) [Compound A304]	–	–
10 to 100	10 to 100	–	CCn1c(-c2cccnc2[C@H](C)OC)c2c3cc(ccc31)-c1cc(O)cc(c1)C[C@H](NC(=O)[C@H](C(C)C)N(C)C(=O)[C@@H]1OCC[C@H]1c1ccccc1)C(=O)N1CCC[C@H](N1)C(=O)OCC(C)(C)C2 (atropisomer, axis not shown) [Compound A584]	–	–

More lines, now with the values behind:

SMILES	IC50 (NRAS Q61R; [1]) [nM]	IC50 (NRAS Q61K; [2]) [nM]	IC50 (NCI-H358 (K-Ras G12C)) [nM]	IC50 (KRAS Q61H; [4]) [nM]	also measured
CCn1c(-c2cccnc2[C@H](C)OC)c2c3cc(ccc31)-c1cc(cc(NC(C)=O)c1)C[C@H](NC(=O)[C@H](C(C)C)N(C)C(C)=O)C(=O)N1CCC[C@H](N1)C(=O)OCC(C)(C)C2 (racemic) [Compound A145]	–	–	–	–	IC50 (NRAS Q61R): > 10000 nM; IC50 (NRAS Q61K): > 10000 nM; IC50 (NRAS WT): > 10000 nM; IC50 (KRAS G12C): > 10000 nM; IC50 (KRAS Q61H): 1000 to 10000 nM
CCn1c(-c2cccnc2[C@H](C)OC)c2c3cc(ccc31)-c1csc(n1)C[C@H](NC(=O)[C@H](C(C)C)N1CCC3(CN(C(=O)OC)C3)C1=O)C(=O)N1CCC[C@H](N1)C(=O)OCC(C)(C)C2 (racemic) [Compound A235]	–	–	–	–	IC50 (KRAS G12C): > 10000 nM
CCn1c(-c2cccnc2[C@H](C)OC)c2c3cc(ccc31)-c1cc(O)cc(c1)C[C@H](NS(=O)(=O)N1CCC1)C(=O)N1CCC[C@H](N1)C(=O)OCC(C)(C)C2 (racemic) [Compound A189]	> 10000	> 10000	–	> 10000	IC50 (NRAS WT; read-out: NRAS WT FRET data IC50): > 10000 nM; IC50 (KRAS G12C; [3]): > 10000 nM
CO[C@@H](C)c1ncccc1-c1c2c3cc(ccc3n1C)-c1cc(O)cc(c1)C[C@H](NC(=O)[C@H](C(C)C)N(C)C(C)=O)C(=O)N1CCC[C@H](N1)C(=O)OCC(C)(C)C2 (racemic) [Compound A104]	> 10000	–	–	1000 to 10000	–
CCn1c(-c2cccnc2[C@H](C)OC)c2c3cc(ccc31)-c1csc(n1)C[C@H](NC(=O)[C@H](C(C)C)N(C)C(=O)N1C[C@@H]3CCN(C)C[C@@H]31)C(=O)N1CCC[C@H](N1)C(=O)OCC(C)(C)C2 (atropisomer, axis not shown) [Compound A516]	–	–	–	1000 to 10000	–
CCn1c(-c2cccnc2[C@H](C)OC)c2c3cc(ccc31)-c1csc(n1)C[C@H](NC(=O)[C@H](C(C)C)N(C)C(=O)N1C[C@H]3CCN(C)C[C@H]31)C(=O)N1CCC[C@H](N1)C(=O)OCC(C)(C)C2 (atropisomer, axis not shown) [Compound A517]	–	–	–	1000 to 10000	–
CCn1c(-c2cccnc2[C@H](C)OC)c2c3cc(ccc31)-c1cc(O)cc(c1)C[C@H](NS(=O)(=O)c1ccc(OC)cc1OC)C(=O)N1CCC[C@H](N1)C(=O)OCC(C)(C)C2 (racemic) [Compound A198]	–	–	–	–	IC50 (KRAS G12C): > 10000 nM
CCn1c(-c2cccnc2[C@H](C)OC)c2c3cc(ccc31)-c1cc(O)cc(c1)C[C@H](NS(=O)(=O)c1cn(C)c(C)n1)C(=O)N1CCC[C@H](N1)C(=O)OCC(C)(C)C2 (racemic) [Compound A197]	–	–	–	–	IC50 (KRAS G12C; [3]): > 10000 nM
